The text below walks through data of the supplement of paper PMC7801607.

Assay [1] deals with Plasmodium falciparum Dd2 asexual blood stage.
Assay [2] concerns Plasmodium falciparum NF54 asexual blood stage.

As to `CCCCc1ccc(S(=O)(=O)Nc2cc(C)on2)cc1`, the IC50 (in general, the midpoint of a concentration-inhibition curve) in assay [1] was above 5 µM; in assay [2], above 6 µM.
Taken in the same sequence, the figures for `Nc1cnn(C2OC(CO)C(O)C2O)c(=O)n1` (centres undefined) were above 5 µM and above 6 µM.
Turning to `CCCCCc1ccc(C(=O)NCCn2cc(CCCCCc3cnc(N)[nH]3)nn2)cc1`, the IC50 in assay [1] was above 5 µM; in assay [2], above 6 µM.
As for `O=[N+]([O-])c1ccc2c(CCc3c[nH]c4ccccc34)c[nH]c2c1`, the figures for the IC50 in assay [1] and in assay [2] were above 5 µM and 0.687 µM, respectively.
Taken in the same sequence, the figures for `Nc1nc(F)nc2c1ncn2[C@H]1O[C@@H](CO)[C@H](O)[C@@H]1O` were above 5 µM and 2.3 µM.
`COc1ccc2cc3[n+](cc2c1OCCN(CCn1cncn1)Cc1ccc(F)cc1F)CCc1cc2c(cc1-3)OCO2`: the IC50 is above 5 µM in assay [1] and 0.138 µM in assay [2].
Taken in the same sequence, the figures for `Cn1cncc1[C@@](N)(c1ccc(Cl)cc1)c1ccc2c(c1)c(-c1cccc(Cl)c1)cc(=O)n2C` were above 5 µM and 3.65 µM.
Taken in the same sequence, the figures for `C=C[C@]1(C)C[C@@H](OC(=O)CS[C@@H]2C[C@H]3CC[C@@H](C2)N3C)[C@]2(C)[C@H](C)CC[C@]3(CCC(=O)[C@H]32)[C@@H](C)[C@@H]1O` were above 5 µM and above 6 µM.
Taken in the same sequence, the figures for `CC(C)(C)NC(=O)[C@@H]1CN(Cc2cnc3occc3c2)CCN1C[C@@H](O)C[C@@H](Cc1ccccc1)C(=O)N[C@H]1c2ccccc2C[C@H]1O` were 2.29 µM and 2.85 µM.
Take `COc1ccc(CNC(=O)C2CCN([C@H](C)c3cccc4ccccc34)CC2)cc1`: the IC50 in assay [1] was above 5 µM; in assay [2], above 6 µM.
As for `Cc1oncc1C(=O)Nc1ccc(C(F)(F)F)cc1`, the results for the IC50 in assay [1] and in assay [2] were above 5 µM and above 6 µM, respectively.
As to `O=C(Nc1nnc(-c2ccc(Cl)cc2)o1)c1nc2ccccc2s1`, the IC50 in assay [1] was above 5 µM; in assay [2] it was above 6 µM.
Turning to `COc1ccc(SC(=O)N[C@H](CCC(=O)O)C(=O)O)cc1`, the IC50 was above 5 µM in assay [1] and above 6 µM in assay [2].
For `O=C(Nc1nnc(-c2ccccc2)o1)c1ccc(F)cc1`, the figures for the IC50 in assay [1] and in assay [2] were above 5 µM and 0.472 µM, respectively.
Taken in the same sequence, the figures for `CC1CCc2c(N3CCC(O)CC3)c(F)cc3c(=O)c(C(=O)O)cn1c23` (centres undefined) were above 5 µM and above 6 µM.
Taken in the same sequence, the figures for `CCOc1noc2cc(OCCC3CCN(c4ccc(C)nn4)CC3)ccc12` were above 5 µM and above 6 µM.
Taken in the same sequence, the figures for `Oc1c(C(Nc2ccccn2)c2ccccc2)ccc2cccnc12` (centres undefined) were above 5 µM and 5.04 µM.
In the case of `O=C(c1ccccc1)N1CCN(c2ccccc2NC(=O)C(Cl)(Cl)Cl)CC1`, the values for the IC50 in assay [1] and in assay [2] were above 5 µM and 2.12 µM, respectively.
Taken in the same sequence, the figures for `CCC(C)(C)c1ccc(CC(C)CN2C[C@@H](C)O[C@@H](C)C2)cc1` (some centres undefined) were above 5 µM and 2.11 µM.
Take `Cc1ccc(NC(=O)c2ccc(CN3CCN(C)CC3)cc2)cc1Nc1nccc(-c2cccnc2)n1`: the IC50 in assay [1] was above 5 µM; in assay [2] it was 2.55 µM.
Taken in the same sequence, the figures for `O=C(Nc1ccc(N2CCN(C(=O)c3ccccc3)CC2)cc1)c1ccc2c(c1)OCO2` were above 5 µM and above 6 µM.
Taken in the same sequence, the figures for `CCC[C@@H]1C[C@@H](C(=O)N[C@@H]([C@H]2O[C@H](SC)[C@H](O)[C@@H](O)[C@H]2O)[C@H](C)Cl)N(C)C1` were above 5 µM and above 6 µM.
As for `CN(C)[C@@H]1C(=O)C(C(N)=O)=C(O)[C@@]2(O)C(=O)C3=C(O)c4c(O)c(NC(=O)CN5CCCC5)cc(F)c4C[C@H]3C[C@@H]12`, the half-maximal inhibitory concentration (IC50) in assay [1] is above 5 µM; in assay [2] it was 1.5 µM.
`C=CCN(C(=O)OCc1ccc([N+](=O)[O-])cc1)C1CCN(CC[C@](C)(CN(C)S(=O)(=O)c2ccccc2)c2ccccc2)CC1`: the half-inhibitory concentration (IC50) in assay [1] is above 5 µM; in assay [2] it was above 6 µM.
Taken in the same sequence, the figures for `O=C(O)CSc1cc(NS(=O)(=O)c2cccc3cccnc23)c2ccccc2c1O` were above 5 µM and 2.57 µM.
Taken in the same sequence, the figures for `OC1O[C@H](CSc2ccc(F)cc2)[C@@H](O)[C@H]1O` (some centres undefined) were above 5 µM and 0.825 µM.
Taken in the same sequence, the figures for `Nc1cc(N)c2nc(-c3ccccc3)c(Nc3ccc(F)cc3)nc2c1` were 4.09 µM and 2.16 µM.
In the case of `Cc1c(OCC(F)(F)F)ccnc1CS(=O)c1nc2ccccc2[nH]1` (centres undefined), the IC50 in assay [1] was above 5 µM; in assay [2], above 6 µM.
Taken in the same sequence, the figures for `CC(C)Nc1nc2cc(Cl)c(Cl)cc2n1[C@H]1O[C@@H](CO)[C@H](O)[C@@H]1O` were above 5 µM and above 6 µM.
Taken in the same sequence, the figures for `O=C(NCc1ccc(F)cc1)c1c(O)c2ncccc2[nH]c1=O` were above 5 µM and above 6 µM.
As to `Cc1ccc(NC(=O)c2cc(Cl)ccc2O)cc1`, the figures for the IC50 in assay [1] and in assay [2] were above 5 µM and above 6 µM, respectively.
Turning to `COc1ccc2nc(-c3ccccc3)cc(O)c2c1`, the 50% inhibitory concentration (IC50) came out at 1.01 µM in assay [1] and 1.78 µM in assay [2].
Taken in the same sequence, the figures for `CCc1cc(O)c(Oc2ccc(C(N)=O)cc2F)cc1F` were above 5 µM and 5.84 µM.
For `CC1CN(c2ncnc3c2c(-c2ccccc2)cn3-c2ccc(F)cc2)CC(C)O1` (centres undefined), the IC50 is above 5 µM in assay [1] and 1.58 µM in assay [2].
For the compound `CCCCc1ccc(C(=O)O)nc1`, the values for the IC50 in assay [1] and in assay [2] were above 5 µM and above 6 µM, respectively.
Consider `COc1ccc(CNC(=O)C(NS(=O)(=O)c2ccc3nc(C)sc3c2)C(C)C)cc1` (centres undefined), for which the results for the IC50 in assay [1] and in assay [2] were above 5 µM and above 6 µM, respectively.
Turning to `CCc1nc(N)nc(N)c1C#CCc1ccccc1`, the IC50 was above 5 µM in assay [1] and 0.703 µM in assay [2].
As for `Fc1ccc(-c2nc(-c3c[nH]c4ccc(Br)cc34)[nH]c2-c2ccc(F)cc2)cc1`, the results for the IC50 in assay [1] and in assay [2] were 4.99 µM and 0.765 µM, respectively.
On to `CC(C)Cn1c(=O)n(C)c(=O)c2c(-c3cncn3C)n(Cc3cccc4ccccc34)nc21`, for which the IC50 was above 5 µM in assay [1] and above 6 µM in assay [2].
`C[C@H](c1cccc2ccccc12)N(C)Cc1ccccc1` had an IC50 in assay [1] above 5 µM.
`Cc1ccc(N2CCC(CCOc3ccc(S(C)(=O)=O)cc3)CC2)nn1` gave a concentration for half-maximal inhibition (IC50) in assay [1] above 5 µM.
`O=C(CSc1nnc(Br)n1-c1ccc(C2CC2)c2ccccc12)Nc1ccc(C(=O)O)cc1Cl` registered an IC50 in assay [1] above 5 µM.
Regarding `Cc1c(N)cccc1Cn1ccc(OCCc2cccs2)cc1=O`, the IC50 in assay [1] is above 5 µM.
For `COc1cc2c(O)c3c(c(-c4ccc5c(c4)OCO5)c2cc1OC)C(=O)OC3`, the IC50 in assay [1] is above 5 µM.
As for `Cc1ccn2c(C(=O)NCc3ccccc3)c(C)nc2c1`, in assay [1], the IC50 is above 5 µM.
Regarding `NC1C2CC3CC(C2)CC1C3` (centres undefined), the values for the IC50 in assay [1] and in assay [2] were above 5 µM and 5.7 µM, respectively.
In turn, `COc1cc(Cc2cc(N)nc(N)n2)cc(OC)c1OC` came in with an IC50 in assay [1] above 5 µM.
On the same count and under the same terms, in the case of `CC(C)(C)c1cc(CCC(=O)N2CCC2)cc(C(C)(C)C)c1O` it was above 5 µM.
In assay [1], `Cc1cc(-c2ccccc2)c(C(=O)C(=O)Nc2ccc(N3CCN(c4ncc(F)cn4)CC3)cc2)n1C` came in with an IC50 above 5 µM.
The same measure, in the same setting: the figure for `CC(C)(C)c1ccc(C(Cn2cccc(C(F)(F)F)c2=O)NC2Cc3ccccc3C2)cc1` (centres undefined) is 4.6 µM; for `CC(N)C(=O)NC(CCCCN)C(=O)NC(CCCNC(=N)N)C(=O)NC(Cc1c[nH]cn1)C(=O)NC(Cc1c[nH]cn1)C(=O)NCC(=O)NC(Cc1ccc(O)cc1)C(=O)NC(CCCCN)C(=O)NC(CCCNC(=N)N)C(=O)NC(CCCCN)C(=O)NC(Cc1ccccc1)C(=O)NC(Cc1c[nH]cn1)C(N)=O` (centres undefined) it is above 5 µM; for `CCCCc1ccc(-c2cc(C(=O)O)cc(-c3ccc(Cl)cc3)n2)cc1` it is above 5 µM.
`CC(C)(C)c1cccc(-c2nc3cc(C(=N)N)ccc3[nH]2)c1O` returned a 50% inhibitory concentration (IC50) in assay [1] above 5 µM.
On the same count and under the same terms, in the case of `OB1OCc2c1ccc(Cl)c2F` it was above 5 µM.
For `Cc1ccc(S(=O)(=O)Nc2cccc3cccnc23)cc1`, the 50% inhibitory concentration (IC50) in assay [1] is above 5 µM; in assay [2] it was 5.1 µM.
The compound `COC(=O)Nc1nc2c(C)cccc2[nH]1` registered a concentration for half-maximal inhibition (IC50) in assay [1] above 5 µM.
In turn, `CCc1oc2ccccc2c1C(=O)c1ccc(O)cc1` had an IC50 in assay [1] above 5 µM.
The same measure, in the same setting: in the case of `O=c1cc(Nc2ccc3ccccc3c2)[nH]c(=O)[nH]1` it was above 5 µM; in that of `CCc1nc2ccccn2c1C(=O)NCc1ccccc1`, above 5 µM.
Still for that read-out and setting: in the case of `O=C(NC12CC3CC(CC(C3)C1)C2)c1cc2ccccc2[nH]1` it was above 5 µM.
`COc1ccc(COc2cc3oc(=O)c4cc(C(C)O)ccc4c3cc2OC)cc1` (centres undefined) displayed an IC50 in assay [1] above 5 µM.
`OCCCCn1cnc2c(O)nc(NCc3ccc(Cl)c(Cl)c3)nc21` had an IC50 in assay [1] above 5 µM.
On the same count and under the same terms, in the case of `CC(=O)N1c2ccccc2NC2=C(C(=O)CC(C)(C)C2)C1c1ccc(OCc2ccccc2)cc1` (centres undefined) it was above 5 µM.
The same measure, in the same setting: the figure for `N[C@H]1CCC[C@H]1C(=O)O` is above 5 µM; for `CCOC(=O)/C=C/[C@H](C[C@@H]1CCNC1=O)NC(=O)[C@@H](CC(=O)[C@@H](NC(=O)c1cc(C)on1)C(C)C)Cc1ccc(F)cc1` it is above 5 µM.
Same read-out and setting: the figure for `COC(=O)Nc1nc2ccccc2[nH]1` is above 5 µM.
Regarding `NC(=O)c1[nH]c2ccc(S(N)(=O)=O)cc2c1-c1ccccc1`, the half-maximal inhibitory concentration (IC50) in assay [1] was above 5 µM.
Same read-out and setting: in the case of `O=c1nc(N2CCN(CC3CCCCC3)CC2)sc2c([N+](=O)[O-])cc(C(F)(F)F)cc12` it was above 5 µM; in that of `O=C(NC1CCCc2c1[nH]c1ccc(Cl)cc21)c1ccccn1` (centres undefined), above 5 µM.
Regarding `CCOCc1nc2c(N)nc3ccccc3c2n1CC(C)(C)O`, the IC50 in assay [1] was above 5 µM; in assay [2], above 6 µM.
As for `C[C@@H]1O[C@@H]1P(=O)(O)O`, the IC50 in assay [1] was above 5 µM.
On the same count and under the same terms, in the case of `Cc1ccc(Oc2ccccc2-c2csc(NC3=NCCCN3)n2)c(C)c1` it was above 5 µM.
